Experimental findings from ChEMBL document CHEMBL1127334, “Discovery of new non-phospholipid inhibitors of the secretory phospholipases A2” (J Med Chem, 1994) are described below.

The IC50 is the point on the concentration scale where inhibition reaches its midpoint. Low values mean inhibition by little substance, high ones a need for much substance.

This assay addresses T1, Phospholipase A2, membrane associated (Homo sapiens, UniProt P14555).
T1 sequence (P14555 whole entry): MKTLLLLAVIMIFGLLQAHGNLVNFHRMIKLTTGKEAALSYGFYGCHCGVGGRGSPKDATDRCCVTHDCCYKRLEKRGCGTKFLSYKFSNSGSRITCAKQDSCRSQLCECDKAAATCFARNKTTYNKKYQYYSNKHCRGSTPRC
Description: Compound was tested for in vitro activity against S-phospholipase A2 (s-PLA2) isolated from human platelets.
As for `O=C(O)C[C@@H](CSc1ccc(Cc2ccccc2)cc1)NC(=O)CCCCCCc1ccccc1`, the midpoint of inhibition, the IC50, lay at 65 nM. In turn, `CCCCCC/C=C/CC(=O)N[C@@H](CCC(=O)O)CSc1ccc2ccccc2c1` displayed an IC50 of 1850 nM. The figure for `CCCCCC/C=C/CC(=O)N[C@H](CCC(=O)O)CSc1ccc2ccccc2c1` is 12000 nM; for `CCCCCC/C=C/CC(=O)N[C@H](CSc1ccc(Cc2ccccc2)cc1)CC(=O)O` it is 3800 nM.
